Test results taken from patent US12152017B2, “Ketoamide compound and preparation method, pharmaceutical composition, and use thereof” (Shanghai Institute of Materia Medica, Chinese Academy of …, priority 2018, dated 2024).
“And” between values parts separate entries of the source, which are not always exact repeats. Identical values can stand only once. Like-named read-outs stand apart in the source and are kept apart here.

Columns and labels:
MERS-CoV pseudovirus = assay: microbe, parasite or virus in culture; format: cell-based; settings: Middle East respiratory syndrome-related coronavirus
HCoV-229E pseudovirus = assay: microbe, parasite or virus in culture; format: cell-based; settings: Human coronavirus 229E, read-out: viral inhibitory effect, HCoV-229E pseudovirus
SARS-CoV pseudovirus = assay: microbe, parasite or virus in culture; format: cell-based; settings: Severe acute respiratory syndrome coronavirus; 100 nM; read-out: viral inhibitory effect, SARS-CoV pseudovirus
VSV-G pseudovirus = format: cell-based
[1] = In vivo safety: body weight of mice during 7 days of intraperitoneal administration; parameters: species or system Balb/c mice; settings: 100 mg/kg i.p. once a day for 7 consecutive days
Protocol: Next, we further evaluated the safety of compound A13 in mice. The mice in the drug group (100 mg/kg) and the DMSO control group were administered intraperitoneally, once a day, for 7 consecutive days, and then the growth status and weight changes of the mice in each group were observed.

[2] = Pharmacokinetic study in CD-1 mice (gavage, intravenous, intraperitoneal); format: in vivo; settings: for bioavailability / Tmax / Cmax / half-life / AUC(0-inf) / AUC(0-t) / MRT inf: male, CD-1, mouse, plasma; for bioavailability: read-out: F (bioavailability); for AUC(0-inf): read-out: AUC INF_obs; for MRT inf: read-out: MRT INF_obs
Protocol: Nine CD-1 mice, male, weighing 18-22 g, were randomly divided into 3 groups with 3 mice in each group. The test compounds were administered by gavage, intravenously and intraperitoneally according to the following schemes.
Before the test, they were fasted for 12 hours and were allowed to drink water freely, and were fed uniformly 2 h after administration.
There were 3 animals at each time point.
The solution for gavage administration was formulated with DMSO/0.5% HPMC (5/95, v/v) into the final concentration. Intravenous and intraperitoneal administration were formulated with DMSO/PEG300/EtOH/NaCl (5/40/5/50, v/v/v). Retention samples of the dosing solution (50 μL of the drug solution was taken and mixed well with 50 μL of DMSO before and after the administration) for testing.
The drug was administered according to the above dosage, the time of administration were recorded, and 20 μL of blood was collected from the mouse femoral plexus at the above set time point and placed in a heparinized test tube and centrifuged immediately at 11000 rpm for 5 min. 10 μL of plasma was immediately and accurately drawn into a centrifuge tube pre-filled with 100 μL of PK-IS solution (prepared with methanol:acetonitrile (1:1, v/v)), mixed well, and frozen to store at −20° C. for testing.

in vitro = settings: human
[3] = i.p. (20 mg/Kg per Table 3), Mean of 3 mice
[4] = i.p. (20 mg/Kg per Table 3), individual animal, 20 mg/kg
[5] = i.v. 10 mg/Kg, individual animal, 10 mg/kg
[6] = ip, 20 mg/kg, i.p. (20 mg/Kg per Table 3), Mean of 3 mice
[7] = ip, 20 mg/kg, i.p. (20 mg/Kg per Table 3), individual animal
[8] = ip, 20 mg/kg, i.p. (20 mg/Kg per Table 3), individual animal, read-out: AUC last
[9] = p.o. (gavage 20 mg/Kg per Table 3), Mean of 3 mice
[10] = p.o. (gavage 20 mg/Kg per Table 3), individual animal, 20 mg/kg
[11] = po, 20 mg/kg, p.o. (gavage 20 mg/Kg per Table 3), Mean of 3 mice
[12] = po, 20 mg/kg, p.o. (gavage 20 mg/Kg per Table 3), individual animal

With O=C(NCc1ccccc1)C(=O)[C@H](C[C@@H]1CCCNC1=O)NC(=O)[C@H](CC1CCCCC1)NC(=O)c1cc2ccccc2o1 [Example A13] the inhibition at 0.1 µM (MERS-CoV pseudovirus; Huh-7, 100 nM, read-out: viral inhibitory effect, MERS-CoV pseudovirus) was roughly 90%, the inhibition at 0.1 µM (HCoV-229E pseudovirus) was roughly 90% and the inhibition at 0.1 µM (SARS-CoV pseudovirus) was roughly 90%. The “inhibitory effect on VSV-G-mediated pseudovirus infection” value (VSV-G pseudovirus) was “did not show an effective inhibitory effect”, the “body weight change versus control group” value [1] was “no difference of the body weight” and the “AUC INF_obs” value [2, 3] was 7635 ng·h/mL. The “AUC last (exposure for intraperitoneal injection)” value [2, 3] was 7298 ng·h/mL, the C max [2, 3] was 3270 ng/mL and the “MRT INF_obs” value [2, 3] was 5.34 h. For the same molecule, the T1/2 [2, 3] was 5.77 h, the “AUC INF_obs” value [2, 4] was 7708 ng·h/mL and 8196 ng·h/mL and the AUC last [2, 4] was 7304 ng·h/mL and 8077 ng·h/mL. The C max [2, 4] was 3583 ng/mL and 3372 ng/mL, the “MRT INF_obs” value [2, 4] was 6.69 h and 6.05 h and 3.28 h and the T1/2 [2, 4] was 5.90 h and 4.94 h. For the same molecule, the T max [2, 4] was 0.250 h and 0.050 h, the “AUC INF_obs” value ([2]; i.v. 10 mg/Kg, Mean of 3 mice) was 2976 ng·h/mL and the AUC last ([2]; i.v. 10 mg/Kg, Mean of 3 mice) was 2896 ng·h/mL. The Cl_obs ([2]; i.v. 10 mg/Kg, Mean of 3 mice) was 62.5 mL/min/kg, the “MRT INF_obs” value ([2]; i.v. 10 mg/Kg, Mean of 3 mice) was 1.88 h and the T1/2 ([2]; i.v. 10 mg/Kg, Mean of 3 mice) was 3.34 h. For the same molecule, the VSS_obs ([2]; i.v. 10 mg/Kg, Mean of 3 mice) was 6.419 L/kg, the “AUC INF_obs” value [2, 5] was 3411 ng·h/mL and 1773 ng·h/mL and 3745 ng·h/mL and the AUC last [2, 5] was 3300 ng·h/mL and 1734 ng·h/mL and 3652 ng·h/mL. The Cl_obs [2, 5] was 48.9 mL/min/kg and 94.0 mL/min/kg and 44.5 mL/min/kg, the “MRT INF_obs” value [2, 5] was 3.11 h and 1.13 h and 1.40 h and the T1/2 [2, 5] was 6.09 h and 2.07 h and 1.87 h. The VSS_obs [2, 5] was 9.132 L/kg and 6.389 L/kg and 3.736 L/kg, the bioavailability ([2]; intraperitoneal, i.p. 20 mg/Kg vs i.v. 10 mg/Kg) was 126% and the Tmax [2, 6] was 0.183 h. It also gave a Cmax [2, 7] of 2860 ng/mL, a half-life [2, 7] of 6.46 h and an AUC(0-inf) [2, 7] of 7000 ng·h/mL. For the same molecule, the AUC(0-t) [2, 8] was 6510 ng·h/mL, the bioavailability ([2]; oral, p.o. 20 mg/Kg vs i.v. 10 mg/Kg) was 7.99% and the “AUC INF_obs” value [2, 9] was 488 ng·h/mL. The “AUC last (oral exposure)” value [2, 9] was 463 ng·h/mL, the C max [2, 9] was 290 ng/mL and the “MRT INF_obs” value [2, 9] was 2.11 h. For the same molecule, the T1/2 [2, 9] was 1.32 h, the T max [2, 9] was 0.250 h and the T max ([2]; p.o. (gavage 20 mg/Kg per Table 3), individual animal) was 0.250 h. The “AUC INF_obs” value [2, 10] was 700 ng·h/mL and 499 ng·h/mL and 263 ng·h/mL, the AUC last [2, 10] was 690 ng·h/mL and 458 ng·h/mL and 241 ng·h/mL and the C max [2, 10] was 493 ng/mL and 259 ng/mL and 118 ng/mL. The “MRT INF_obs” value [2, 10] was 1.37 h and 3.08 h and 1.88 h, the T1/2 [2, 10] was 0.619 h and 2.15 h and 1.18 h and the “CC50 relative to the detection dose” value (Huh-7 cells) was “more than 1000 times”. For the same molecule, the CC50 (in vitro) was greater than 100 µM, the “Inhibition of HCoV-OC43 infection and CPE” value (HCoV-OC43 live virus; 1 μM, HCT-8 cells) was “effectively block the virus infection” and the IC50 (HCoV-OC43 live virus; Betacoronavirus 1, OC43, HCT-8, read-out: IC50 against HCoV-OC43 live virus infection) was 0.086 µM. The “protective effect on target cells (CPE) at different concentrations” value (HCoV-OC43 live virus; HCT-8 cells, HCoV-OC43) was “obviously dose-dependent”.
For Cc1cnc(C(=O)N[C@@H](CC2CCCCC2)C(=O)N[C@@H](C[C@@H]2CCNC2=O)C(=O)C(=O)NCc2ccccc2)o1 [Example A242, N—((S)-1-(((S)-4-(benzylamino)-3,4-dione-1-((S)-2-oxopyrrolidine-3-yl)but-2-yl)amino)-3-cyclohexyl-1-oxopropan-2-yl)-5-methyloxazole-2-carboxamide], the IC50 (MERS-CoV pseudovirus; Huh-7, read-out: MERS-CoV pseudovirus inhibitory activity IC50) was 0.0022 ± 0.0008 µM, the “AUC INF_obs” value [2, 4] was 5808 ng·h/mL and 6750 ng·h/mL and the AUC last [2, 4] was 5779 ng·h/mL and 6628 ng·h/mL. The C max [2, 4] was 4739 ng/mL and 5334 ng/mL, the “MRT INF_obs” value [2, 4] was 1.85 h and 2.45 h and the T1/2 [2, 4] was 4.37 h and 6.75 h. It also gave a Cmax [2, 6] of 5490 ng/mL, a Tmax [2, 6] of 0.25 h and a half-life [2, 6] of 5.32 h. The AUC(0-inf) [2, 6] was 6960 ng·h/mL, the AUC(0-t) ([2]; ip, 20 mg/kg, i.p. (20 mg/Kg per Table 3), Mean of 3 mice, read-out: AUC last (exposure for intraperitoneal injection)) was 6890 ng·h/mL and the MRT inf [2, 6] was 2.07 h. The Cmax [2, 7] was 6400 ng/mL, the Tmax [2, 7] was 0.25 h and the half-life [2, 7] was 4.85 h. The AUC(0-inf) [2, 7] was 8320 ng·h/mL, the AUC(0-t) [2, 8] was 8260 ng·h/mL and the MRT inf [2, 7] was 1.92 h. The Cmax [2, 11] was 409 ng/mL, the Tmax [2, 11] was 0.25 h and the half-life [2, 11] was 4.51 h. The AUC(0-inf) [2, 11] was 493 ng·h/mL, the AUC(0-t) ([2]; po, 20 mg/kg, p.o. (gavage 20 mg/Kg per Table 3), Mean of 3 mice, read-out: AUC last (oral exposure)) was 488 ng·h/mL and the MRT inf [2, 11] was 2.56 h. It also gave a Tmax [2, 12] of 0.25 h, a half-life [2, 12] of 4 h and an AUC(0-inf) [2, 12] of 436 ng·h/mL. The AUC(0-t) ([2]; po, 20 mg/kg, p.o. (gavage 20 mg/Kg per Table 3), individual animal, read-out: AUC last) was 434 ng·h/mL, the MRT inf [2, 12] was 2.13 h and the “AUC INF_obs” value [2, 10] was 413 ng·h/mL and 629 ng·h/mL. For the same molecule, the AUC last [2, 10] was 409 ng·h/mL and 622 ng·h/mL, the C max [2, 10] was 499 ng/mL and 247 ng/mL and 482 ng/mL and the “MRT INF_obs” value [2, 10] was 2.84 h and 2.71 h. For the same molecule, the T1/2 [2, 10] was 4.63 h and 4.91 h.
